The values below come from ChEMBL document CHEMBL1201862, “PubChem BioAssay data set” (2004).

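Values below derive from 48-hour exposures of cells grown in 96-well plates, with endpoints linearly interpolated between the two concentrations bracketing the appropriate inhibition level. The concentration for 50% growth inhibition is given as GI50.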 Active and inactive are the calls of the source. No stated cut-off is given here; in the data, active = GI50 up to about 1.1 µM and inactive = higher.

Among the test systems are A498; A549; EKVX; HCT-116; HT-29; K562; MCF7; Malme-3M; NCI-H226; NCI-H23; SF-295; SF-539; SK-MEL-2; SK-OV-3; SN12C; SNB-75; U-251; KM-20L2.
What all share (test): NCI tumour cell line growth inhibition, 48 h

For the compound `NC(=O)c1ccc(NCC2=CC(=O)C=CC2=O)cc1`, the GI50 in the assay with A498 was 33.9 µM (inactive); in the assay with A549, > 100 µM (inactive); in the assay on EKVX it was 16.9 µM (inactive); in the assay on HCT-116, 18.7 µM (inactive); in the assay on HT-29 it was 22.1 µM (inactive); in the assay on K562, 21.8 µM (inactive). The GI50 in the assay on MCF7 is 23 µM (inactive); with Malme-3M, 19.5 µM (inactive); with NCI-H226, > 100 µM (inactive); in the assay on NCI-H23, 25.9 µM (inactive); in the assay with SF-295, > 100 µM (inactive); in the assay with SF-539 it was 17.1 µM (inactive). The GI50 was 20.4 µM (inactive) with SK-MEL-2; > 100 µM (inactive) with SK-OV-3; 20.2 µM (inactive) in the assay with SN12C; 21 µM (inactive) with SNB-75; 22 µM (inactive) in the assay on U-251.
For `CC1(C)CCC[C@@]2(C)C1C(=O)[C@@H]1O[C@]1(C)[C@@H]2CO` (stereo not given in full), the GI50 with A498 is 38.6 µM (inactive); in the assay with A549, 19.6 µM (inactive); in the assay with EKVX it was 31.6 µM (inactive); with HCT-116, 19.7 µM (inactive); in the assay on HT-29, 37.9 µM (inactive); in the assay on K562 it was 27.3 µM (inactive). Moreover, the GI50 was > 100 µM (inactive) in the assay with MCF7; 37.9 µM (inactive) in the assay on Malme-3M; 33.3 µM (inactive) in the assay with NCI-H226; 16.3 µM (inactive) in the assay on NCI-H23; 18.2 µM (inactive) in the assay with SF-295; 37.8 µM (inactive) in the assay on SF-539. Further, the GI50 in the assay on SK-MEL-2 is 28.1 µM (inactive); in the assay on SK-OV-3, 39.6 µM (inactive); with SN12C, 25.5 µM (inactive); in the assay on SNB-75, 24.5 µM (inactive); in the assay on U-251, 14.8 µM (inactive).
As for `CCCCCCCC/C=C\CCCCCCC/C=C1\C[C@](/C=C/C(=O)OC)(CO)OC1=O`, the GI50 in the assay with A498 was 8.34 µM (inactive); in the assay on A549, 4.3 µM (inactive); in the assay with EKVX, 10.4 µM (inactive); in the assay with HCT-116, 2.16 µM (inactive); in the assay on HT-29, 5.08 µM (inactive); in the assay on K562 it was 0.662 µM (active). The GI50 in the assay on MCF7 is 3.28 µM (inactive); with Malme-3M, 1.4 µM (inactive); with NCI-H226, 2.61 µM (inactive); with NCI-H23 it was 3.71 µM (inactive); in the assay on SF-295, 2.23 µM (inactive); in the assay with SF-539 it was 1.78 µM (inactive). Besides, the GI50 in the assay with SK-MEL-2 was 8.41 µM (inactive); with SK-OV-3, 6.3 µM (inactive); with SN12C, 1.56 µM (inactive); in the assay on SNB-75, 1.92 µM (inactive); in the assay with U-251, 1.85 µM (inactive).
On to `COC(=O)C1=C(C(=O)OC)C2=S(SC3=C2CCCC3)S1` (stereo not given), for which the GI50 was 36.1 µM (inactive) in the assay with A549; > 100 µM (inactive) in the assay with EKVX; 18.7 µM (inactive) with HT-29; 4.35 µM (inactive) with K562; 24.6 µM (inactive) in the assay with KM-20L2; 20.1 µM (inactive) in the assay on Malme-3M. Further, the GI50 in the assay on NCI-H23 was 24.1 µM (inactive); with SF-295, 46.1 µM (inactive); in the assay on SF-539, 25.1 µM (inactive); in the assay with SK-MEL-2 it was 23.1 µM (inactive); in the assay on SK-OV-3 it was > 100 µM (inactive); in the assay with SN12C, 25.5 µM (inactive). Also, the GI50 was 12.1 µM (inactive) in the assay with SNB-75 and 19.6 µM (inactive) with U-251.
With `Cc1nc(-[n+]2nc(-c3ccncc3)nn2-c2ccccc2)sc1C`, the GI50 is 92.7 µM (inactive) in the assay with A498; 30.3 µM (inactive) with A549; 27.2 µM (inactive) in the assay on EKVX; 13.4 µM (inactive) in the assay on HCT-116; 55.1 µM (inactive) with HT-29; 4.91 µM (inactive) in the assay with K562. In addition, the GI50 in the assay with MCF7 was 18.6 µM (inactive); with Malme-3M, > 100 µM (inactive); with NCI-H226 it was 32.1 µM (inactive); in the assay with NCI-H23, 57.9 µM (inactive); in the assay with SF-295 it was 9.93 µM (inactive); in the assay on SF-539, 8.53 µM (inactive). Moreover, the GI50 is > 100 µM (inactive) in the assay on SK-MEL-2; 21.2 µM (inactive) with SK-OV-3; 49.4 µM (inactive) in the assay on SN12C; 42.9 µM (inactive) in the assay on SNB-75; 29.4 µM (inactive) with U-251.
Turning to `CCC1(CC)SCc2nc3ccccc3n21`, the GI50 in the assay on A498 is 40.1 µM (inactive); with A549, 35.9 µM (inactive); in the assay on EKVX, 27.3 µM (inactive); in the assay with HCT-116 it was 23.9 µM (inactive); in the assay on HT-29, 32.3 µM (inactive); in the assay on K562 it was 18.9 µM (inactive). Further, the GI50 in the assay on MCF7 is 30.2 µM (inactive); in the assay on Malme-3M, 22.4 µM (inactive); in the assay with NCI-H226, 33.4 µM (inactive); in the assay with NCI-H23, 27.7 µM (inactive); in the assay on SF-295, 36.5 µM (inactive); in the assay on SF-539, 54.3 µM (inactive). Also, the GI50 was 27.5 µM (inactive) in the assay on SK-MEL-2; 38.5 µM (inactive) in the assay on SK-OV-3; 49.8 µM (inactive) in the assay on SN12C; 12.6 µM (inactive) in the assay on SNB-75; 37.2 µM (inactive) with U-251.
Consider `COC(=O)NC(Cc1ccccc1)NC(=O)OC(C)(C)C` (stereo not given), for which the GI50 in the assay on A498, in the assay with A549, in the assay on EKVX, with HCT-116, in the assay on HT-29 and in the assay with K562 was > 100 µM (inactive) throughout. Further, the GI50 in the assay with MCF7, in the assay with Malme-3M, in the assay with NCI-H226, in the assay with NCI-H23, with SF-295 and with SF-539 was > 100 µM (inactive) each time. The GI50 in the assay on SK-MEL-2, in the assay with SK-OV-3, in the assay on SN12C, in the assay on SNB-75 and in the assay with U-251 was > 100 µM (inactive) throughout.
For the compound `CCc1cccc(C(C)C)c1NC1=C([n+]2ccc(C)cc2)C(=O)c2ccccc2C1=O.[O-][Cl+3]([O-])([O-])[O-]`, the GI50 in the assay with A498 was 2.75 µM (inactive); with A549, 2.37 µM (inactive); in the assay with EKVX, 0.817 µM (active); in the assay with HCT-116, 3.21 µM (inactive); in the assay with HT-29, 1.82 µM (inactive); in the assay with K562 it was 1.91 µM (inactive). Further, the GI50 in the assay on MCF7 is 0.27 µM (active); in the assay on Malme-3M it was 2.12 µM (inactive); in the assay with NCI-H226 it was 1.39 µM (inactive); in the assay on NCI-H23, 1.93 µM (inactive); in the assay with SF-295, 1.87 µM (inactive); in the assay on SF-539, 0.895 µM (active). The GI50 with SK-MEL-2 was 3.87 µM (inactive); with SK-OV-3, 2.64 µM (inactive); with SN12C, 0.475 µM (active); in the assay on SNB-75, 1.75 µM (inactive); with U-251, 0.887 µM (active).
As to `C=C1C(=O)OC2/C=C(\C)C(=O)CC3OC(C)(C)OC3(C)CC(OC(=O)/C(C)=C/C)C12` (stereo not given), the GI50 was 21.9 µM (inactive) in the assay on A498; 48.8 µM (inactive) in the assay with A549; 14.2 µM (inactive) in the assay with EKVX; 7.43 µM (inactive) in the assay with HCT-116; 7.89 µM (inactive) in the assay with HT-29; 4.05 µM (inactive) in the assay with K562. Also, the GI50 was 7.46 µM (inactive) in the assay with MCF7; 10.9 µM (inactive) in the assay on Malme-3M; 23.4 µM (inactive) in the assay on NCI-H226; 20.2 µM (inactive) in the assay with NCI-H23; 42 µM (inactive) in the assay with SF-295; 17.1 µM (inactive) in the assay with SF-539. In addition, the GI50 with SK-MEL-2 is 28.1 µM (inactive); with SK-OV-3 it was 55.5 µM (inactive); in the assay with SN12C it was 20.7 µM (inactive); in the assay with SNB-75 it was > 42.9 µM (inactive); in the assay with U-251 it was 27.5 µM (inactive).
